We go through one compound from patent US20210000912A1, “Compositions And Methods For Prophylaxis Or Treatment Of Pain” (Interk Peptide Therapeutics Limited, priority 2017, published 2021).

The structures appear in SMILES notation.

For one series, the system named is nerve injured rats. The experiment in a line: Intrathecal testing in neuropathic pain model, von Frey paw withdrawal threshold. In kind it is in vivo, Sprague-Dawley rats. Particulars: administered intrathecally, on a molar basis. On the procedure: Experiments were performed on male Sprague-Dawley rats weighing 300-400 g at the start of experiments. Animals were housed 2 or 3 per cage until cannula surgery, after which time they were singly housed for 4 days until the day of experiment. Animals were maintained on standard 12-h light/dark cycle with food and water available ad libitum.
After baseline von Frey measures were taken, animals underwent partial nerve ligation (PNL) surgery, as previously described (Seltzer, Z., Dubner, R., Shir, Y., 1990. A novel behavioural-model of neuropathic pain disorders produced in rats by partial sciatic-nerve injury. Pain 43, 205-218). Briefly, animals were deeply anaesthetised using isoflurane (2.0-2.5% in oxygen), and the sciatic nerve of the left hind-leg was exposed via blunt dissection of the biceps femoris at a site near the trochanter, just distal to the posterior biceps semitendinosus nerve branches of the common sciatic nerve. A 6-0 silk suture was used to tightly ligate the dorsal 30-50% of the nerve. […]
Mechanical paw withdrawal threshold (PWT) was measured using a series of von Frey hairs with bending pressures ranging from 0.41 to 15.1 g. […] The mechanical PWT was calculated using the up-down paradigm (Dixon, W. J., 1980. Efficient analysis of experimental-observations. Annual Review of Pharmacology and Toxicology 20, 441-462). […]

The nature of series [1]: Resistance to simulated gastric fluid. It is filed as in vitro ADME. On the procedure: Test 14 Arg peptides consisting of 14 contiguous L- or D-arginine amino acids were tested for resistance to simulated gastric fluid (porcine pepsin in a HCl and NaCl solution) at a pH of 2.01 for a period of 24 hours. Negligible degradation of each peptide was observed by exposure to the simulated gastric fluid over the 24 hour test period.

In the case of `N=C(N)NCCC[C@H](NC(=O)[C@H](CCCNC(=N)N)NC(=O)[C@H](CCCNC(=N)N)NC(=O)[C@H](CCCNC(=N)N)NC(=O)[C@H](CCCNC(=N)N)NC(=O)[C@H](CCCNC(=N)N)NC(=O)[C@H](CCCNC(=N)N)NC(=O)[C@H](CCCNC(=N)N)NC(=O)[C@H](CCCNC(=N)N)NC(=O)[C@H](CCCNC(=N)N)NC(=O)[C@H](CCCNC(=N)N)NC(=O)[C@H](CCCNC(=N)N)NC(=O)[C@H](CCCNC(=N)N)NC(=O)[C@@H](N)CCCNC(=N)N)C(N)=O` [IK01400, RRRRRRRRRRRRRR-NH2], the “alleviating neuropathic pain (ipsilateral von Frey PWT) compared to morphine” value in the series on nerve injured rats is on record as “more effective in alleviating neuropathic pain than morphine on a molar basis”. Moreover, the remaining at 1 h in series [1] (pig, simulated gastric fluid with porcine pepsin, simulated gastric fluid pH 2.01, 1 hr, read-out: % of intact peptide observed) is 99.5%. Moreover, the remaining at 4 h in series [1] (pig, simulated gastric fluid with porcine pepsin, simulated gastric fluid pH 2.01, 4 hrs, read-out: % of intact peptide observed) is 98.5%. For the same compound, in series [1] (pig, simulated gastric fluid with porcine pepsin, simulated gastric fluid pH 2.01, 24 hrs, read-out: % of intact peptide observed), the remaining at 24 h is 98.2%. For the same compound, the “% of intact peptide observed” value in series [1] (simulated gastric fluid pH 2.01, time 0) is reported as 98.51%.
